Assay [1] addresses T1, MMP13 (Homo sapiens (Human), UniProt P45452). Put plainly: MMP activity assay (fluorogenic substrate), MMP13 catalytic domain. It is filed as biochemical. Particulars: Table 2; read-out: MMP13 IC50.
The target in assay [2] is T1, MMP13. Put plainly: In vitro zymography assay (gelatin), MMP-13. It is filed as biochemical. Particulars: % ± SD. The procedure:
MMP-2 and MMP-9 enzymes were isolated from rat hearts and from rat spleen while human, recombinant MMP-1 and MMP-13 enzymes used were commercial. MMP-2, -9, -13 enzymes were separated by electrophoresis during non-reducing conditions on 8% SDS-polyacrylamide gels copolymerized with 2 mg/ml gelatin from porcine skin (Sigma Aldrich) while MMP-1 was separated under the same conditions on 8% SDS-polyacrylamide gels copolymerized with 2 mg/ml casein (Sigma Aldrich). […] In case of MMP-13 p-aminophenylmercuric acetate (APMA) was used for enzyme activation at 37° C. for 30 min. After electrophoresis, gels were washed in 2.5% Triton-X 100 with agitation and then incubated for 20 hrs at 37° C. in enzyme incubation buffer (50 mM Tris-HCl, pH 7.5, containing 5 mM CaCl2, 200 mM NaCl) with or without MMP inhibitor. Zymographic gels were stained in Coomassie Brilliant Blue R-250 and de-stained. Gelatin and casein zymograms were scanned. MMP activity is detected as a white zone on a blue background and the clear bands in the gel can be quantified by densitometry. The obtained density values were measured and % inhibition values calculated (Kupai et al., 2010). The table below summarizes the prescreen inhibition values determined for different MMP inhibitors on MMP1, -2, -9, -13.

A further assay concerns isolated rat hearts. Put plainly: Myocardial ischemia/reperfusion injury in isolated rat hearts (Langendorff), infarct size. It is filed as ex vivo. The procedure: Male Wistar rats were anesthetized with diethyl ether, heparin (500 U/kg i.v.) was administered and hearts were isolated. The hearts were assigned to three groups: (i) DMSO control and (ii) Compound 1 (1 μM) and (iii) Compound 1 (10 μM) treated. Stock solution of inhibitors was prepared in DMSO. The final DMSO concentration in all assays was 0.1%. Hearts were perfused in Langendorff mode with constant pressure (100 H2O cm) for 20 min at 37° C. then exposed to global ischemia for 30 min followed by 120 min of reperfusion. The DMSO and inhibitors were dissolved in Krebs-Henseleit buffer and administered only before onset of ischemia for 20 min (pretreatment) and during the first 30 min of reperfusion (FIG. 6). At the end of reperfusion, infarct size (IS) was defined by triphenyltetrazolium chloride staining (Csonka et al., 2010).
In separate experiments hearts were perfused to test cardioprotective effect of ALBH-know compound at 5 μM final concentration. The same protocol was used as mentioned above.

Entries after “also recorded” stand apart in the source; their conditions may differ.

Broadly, the IC50 is the concentration that inhibits the measured activity by half. As usually defined, the inhibition is the percentage by which the read-out fell short of the control. On to `O=C(O)c1csc(CN(Cc2ccc(F)cc2)Cc2ccc(OCc3cccnc3)cc2)n1` [Compound 1, 2-({[(4-Fluorophenyl)methyl]({[4-(pyridin-3-ylmethoxy)phenyl]methyl})amino}methyl)-1,3-thiazole-4-carboxylic acid], for which, on MMP13 [1], the IC50 worked out at 2.5 µM. Further, the inhibition at 1 µM at MMP13 [2] (1 μM, read-out: % inhibition MMP-13 (50 kDa)) was determined as 54.4 ± 2.33%. The “% inhibition MMP-13 (50 kDa)” value at MMP13 [2] (100 μM) was “No inhibition”. Besides, the “myocardial IS (infarct size)” value with isolated rat hearts (1 μM and 10 μM, administered before ischemia and during reperfusion, result in words) is reported as “reduced myocardial IS; also recorded: decreased infarct size significantly”. For the same molecule, in the assay with isolated rat hearts (10 μM, isolated rat hearts, 30 min global ischemia, 120 min reperfusion, p<0.05), the “Infarct size as compared with DMSO control” value is “significantly decreased infarct size”.

These data come from patent US9487462B2, “Inhibitors of matrix metalloproteinases” (PharmaHungary 2000 Kft., priority 2010, dated 2016).
